Among the data in patent US12473304B2, “Heterocyclic PAD4 inhibitors” (BRISTOL-MYERS SQUIBB COMPANY, priority 2020, dated 2025) are IC50 values, retold here.

Molecules are shown by their SMILES.

The term IC50 denotes the concentration that gives 50% inhibition.

In the assay the target is human PAD4 (hPAD4) (Homo sapiens (Human), UniProt Q9UM07). Put plainly: RFMS Human PAD4 Functional Assay 1. Format: biochemical. Particulars: RFMS assay 1; 5 nM hPAD4, 250 μM BAEE substrate, 50 μM calcium, 37° C. The gist of the method: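 Citrullination product read by RapidFire triple-quad MRM against a modified-citrulline internal standard, after TCA stop and 30 min phenyl glyoxal step at 37 °C. Reaction: 250 μM BAEE, 5 nM human PAD4, 90 min at 37 °C, pH 7.5 HEPES buffer with 50 μM calcium and 5 μM TPEN, following 30 min compound–enzyme preincubation (max 50 μM).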
Sequence of human PAD4 (hPAD4) (Q9UM07 whole entry): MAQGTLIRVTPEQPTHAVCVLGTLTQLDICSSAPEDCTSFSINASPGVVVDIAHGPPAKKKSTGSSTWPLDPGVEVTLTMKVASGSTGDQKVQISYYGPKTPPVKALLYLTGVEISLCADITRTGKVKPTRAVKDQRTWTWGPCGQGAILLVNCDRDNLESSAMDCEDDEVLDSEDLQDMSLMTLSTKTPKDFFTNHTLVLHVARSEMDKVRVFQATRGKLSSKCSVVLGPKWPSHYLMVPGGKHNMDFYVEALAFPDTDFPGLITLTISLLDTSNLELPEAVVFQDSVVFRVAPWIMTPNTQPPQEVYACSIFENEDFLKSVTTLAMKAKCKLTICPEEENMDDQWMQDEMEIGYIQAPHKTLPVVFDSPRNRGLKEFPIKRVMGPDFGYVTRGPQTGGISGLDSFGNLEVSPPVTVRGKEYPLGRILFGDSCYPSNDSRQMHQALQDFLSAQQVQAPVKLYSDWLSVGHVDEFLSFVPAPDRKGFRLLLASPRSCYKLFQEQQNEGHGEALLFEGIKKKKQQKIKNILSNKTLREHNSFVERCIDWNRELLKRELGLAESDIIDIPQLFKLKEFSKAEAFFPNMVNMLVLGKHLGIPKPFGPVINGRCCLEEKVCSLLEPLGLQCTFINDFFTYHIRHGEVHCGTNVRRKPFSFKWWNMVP
Consider `COc1cc(C(=O)N2CC3CCC2[C@@H]3N)cn2nc(-c3cc4ccc(-c5ccc6c(c5)CNC6=O)cc4n3CC3CC3)c(C)c12` (stereo partly drawn) [Example 24, 5-(2-(6-((7R)-7-Amino-2-azabicyclo[2.2.1]heptane-2-carbonyl)-4-methoxy-3-methylpyrazolo[1,5-a]pyridin-2-yl)-1-(cyclopropylmethyl)-1H-indol-6-yl)isoindolin-1-one], for which the IC50 came out at 0.031 µM. As to `COc1cc(C(=O)N2CC3CCC2[C@@H]3N)cn2nc(-c3cc4ccc(-c5ccn6c(C)nnc6c5)cc4n3CC3CC3)c(C)c12` (stereo partly drawn) [Example 25, ((7R)-7-Amino-2-azabicyclo[2.2.1]heptan-2-yl)(2-(1-(cyclopropylmethyl)-6-(3-methyl-[1,2,4]triazolo[4,3-a]pyridin-7-yl)-1H-indol-2-yl)-4-methoxy-3-methylpyrazolo[1,5-a]pyridin-6-yl)methanone], the IC50 is 0.017 µM. On to `COc1cc(C(=O)N2CC3CCC2[C@@H]3N)cn2nc(-c3cc4ccc(-c5ccc(OC(F)F)cc5)cc4n3CC3CC3)c(C)c12` (stereo partly drawn) [Example 26, ((7R)-7-Amino-2-azabicyclo[2.2.1]heptan-2-yl)(2-(1-(cyclopropylmethyl)-6-(4-(difluoromethoxy)phenyl)-1H-indol-2-yl)-4-methoxy-3-methylpyrazolo[1,5-a]pyridin-6-yl)methanone], for which the IC50 came to 0.449 µM.

As to `COc1cc(C(=O)N2CC3CCC2[C@@H]3N)cn2nc(-c3cc4ccc(C)cc4n3CC3CC3)c(C)c12` (stereo partly drawn) [Example 27, ((7R)-7-Amino-2-azabicyclo[2.2.1]heptan-2-yl)(2-(1-(cyclopropylmethyl)-6-methyl-1H-indol-2-yl)-4-methoxy-3-methylpyrazolo[1,5-a]pyridin-6-yl)methanone], the IC50 was 0.022 µM. `COc1cc(C(=O)N2C[C@H](N)C[C@@H](F)C2)cn2nc(-c3cc4ccc(-c5ccc6c(c5)C(=O)NC6)cc4n3CC3CC3)c(C)c12` [Example 29, 6-(2-(6-((3R,5R)-3-Amino-5-fluoropiperidine-1-carbonyl)-4-methoxy-3-methylpyrazolo[1,5-a]pyridin-2-yl)-1-(cyclopropylmethyl)-1H-indol-6-yl)isoindolin-1-one]: the IC50 worked out at 1.02 µM. As for `COc1cc(C(=O)N2C[C@H](N)C[C@@H](F)C2)cn2nc(-c3cc4ccc(-c5ccc6c(c5)CNC6=O)cc4n3CC3CC3)c(C)c12` [Example 30, 5-(2-(6-((3R,5R)-3-Amino-5-fluoropiperidine-1-carbonyl)-4-methoxy-3-methylpyrazolo[1,5-a]pyridin-2-yl)-1-(cyclopropylmethyl)-1H-indol-6-yl)isoindolin-1-one], the IC50 worked out at 0.084 µM.

Turning to `COc1cc(C(=O)N2C[C@H](N)C[C@@H](F)C2)cn2nc(-c3cc4ccc(-c5ccn6c(C)nnc6c5)cc4n3CC3CC3)c(C)c12` [Example 31, ((3R,5R)-3-Amino-5-fluoropiperidin-1-yl)(2-(1-(cyclopropylmethyl)-6-(3-methyl-[1,2,4]triazolo[4,3-a]pyridin-7-yl)-1H-indol-2-yl)-4-methoxy-3-methylpyrazolo[1,5-a]pyridin-6-yl)methanone], the IC50 worked out at 0.065 µM. For `COc1cc(C(=O)N2C[C@H](N)C[C@@H](F)C2)cn2nc(-c3cc4ccc(-c5cccc(O)c5F)cc4n3CC3CC3)c(C)c12` [Example 32, ((3R,5R)-3-Amino-5-fluoropiperidin-1-yl)(2-(1-(cyclopropylmethyl)-6-(2-fluoro-3-hydroxyphenyl)-1H-indol-2-yl)-4-methoxy-3-methylpyrazolo[1,5-a]pyridin-6-yl)methanone], the concentration for half-maximal inhibition (IC50) came out at 0.414 µM.

In the case of `COCC1CN(c2ccc3cc(-c4nn5cc(C(=O)N6C[C@H](N)C[C@@H](F)C6)cc(OC)c5c4C)n(CC4CC4)c3c2)C1` [Example 33, ((3R,5R)-3-Amino-5-fluoropiperidin-1-yl)(2-(1-(cyclopropylmethyl)-6-(3-(methoxymethyl)-azetidin-1-yl)-1H-indol-2-yl)-4-methoxy-3-methylpyrazolo[1,5-a]pyridin-6-yl)methanone], the IC50 was found to be 0.534 µM.
